Data as given in patent publication US20110033393A1, “Hydrazone Compounds and Their Use” (priority 2009, published 2011).

Molecular target: T1, human TRPM5 ion channel (Homo sapiens, UniProt Q9NZQ8)
T1 sequence (Q9NZQ8 1-1165): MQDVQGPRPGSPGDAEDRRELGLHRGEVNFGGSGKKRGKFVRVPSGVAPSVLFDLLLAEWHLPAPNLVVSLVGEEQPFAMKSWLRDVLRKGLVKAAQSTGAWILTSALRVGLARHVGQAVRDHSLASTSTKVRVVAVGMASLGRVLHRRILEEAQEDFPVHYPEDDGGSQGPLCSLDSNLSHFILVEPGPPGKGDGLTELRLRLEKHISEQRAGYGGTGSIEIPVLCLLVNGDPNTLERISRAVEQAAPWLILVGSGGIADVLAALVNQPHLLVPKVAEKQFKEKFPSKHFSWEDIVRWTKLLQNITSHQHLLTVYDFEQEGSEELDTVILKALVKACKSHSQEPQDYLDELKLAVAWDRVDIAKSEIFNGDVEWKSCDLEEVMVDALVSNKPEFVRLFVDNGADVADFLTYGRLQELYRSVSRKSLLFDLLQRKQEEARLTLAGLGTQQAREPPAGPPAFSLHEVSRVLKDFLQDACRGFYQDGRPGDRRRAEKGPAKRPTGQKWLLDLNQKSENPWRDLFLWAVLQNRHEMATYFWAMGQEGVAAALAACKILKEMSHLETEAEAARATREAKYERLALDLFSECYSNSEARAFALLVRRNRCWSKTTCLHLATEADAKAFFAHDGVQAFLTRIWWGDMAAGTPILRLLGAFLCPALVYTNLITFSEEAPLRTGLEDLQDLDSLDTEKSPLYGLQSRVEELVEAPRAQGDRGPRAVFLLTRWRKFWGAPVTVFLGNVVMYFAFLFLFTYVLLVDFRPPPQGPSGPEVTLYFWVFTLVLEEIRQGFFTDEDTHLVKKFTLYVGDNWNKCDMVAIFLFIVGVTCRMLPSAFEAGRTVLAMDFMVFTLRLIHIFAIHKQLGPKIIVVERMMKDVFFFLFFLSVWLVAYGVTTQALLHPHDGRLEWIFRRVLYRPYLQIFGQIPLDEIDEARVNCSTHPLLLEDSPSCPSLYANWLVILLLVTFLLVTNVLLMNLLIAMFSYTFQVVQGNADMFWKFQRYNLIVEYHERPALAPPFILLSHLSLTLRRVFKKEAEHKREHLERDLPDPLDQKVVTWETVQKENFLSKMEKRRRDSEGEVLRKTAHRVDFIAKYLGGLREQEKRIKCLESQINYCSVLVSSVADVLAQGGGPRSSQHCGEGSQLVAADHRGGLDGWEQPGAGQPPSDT
Assay: FLIPR-based assay for membrane potential and calcium mobilization (TRPM5 inhibiting activity)
Assay type: cell-based
Details: live cells, 30° C., read-out: hTrpM5 IC50
Procedure, shortened: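 Live cells expressing human TRPM5, assayed at 30 °C by FLIPR readout of membrane potential and calcium mobilization. Ten serial 2- or 3-fold dilutions from no more than 100 μM. IC50 derived by curve fitting of concentration-effect data.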

- IC50: 420 nM
Compound: Cc1cc(/C=N/NC(=O)C2CC2c2ccccc2)cc2cccnc12 (racemic) [Example 10, trans-N′-((8-Methylquinolin-6-yl)methylene)-2-phenylcyclopropanecarbohydrazide]
